Assay results published in patent US20220354835A1, “COMPOUNDS FOR DEGRADING TAU PROTEIN AGGREGATES AND USES THEREOF” (Aprinoia Therapeutics Limited, priority 2019, published 2022).

Columns and labels:
[1] = molecular target: T1, heparin-induced aggregated tau (aTau), full-length 2N4R human Tau (Homo sapiens, UniProt P10636); test: PBB5 competition assay; type: binding; conditions: 0.12 μM aTau; for IC50: 0.1 μM PBB5, 37° C. 1 hour, PBB5 fluorescence 530/690 nm; for Emax: 0.1 μM PBB5, compound up to 10 μM, read-out: Competition Assay with PBB5: Bmax (%)
T1 construct: transformed with a full-length 2N4R tau expression plasmid; made in house; host or cells: E. coli BL21
T1 sequence (P10636 1-441 isoform P10636-8): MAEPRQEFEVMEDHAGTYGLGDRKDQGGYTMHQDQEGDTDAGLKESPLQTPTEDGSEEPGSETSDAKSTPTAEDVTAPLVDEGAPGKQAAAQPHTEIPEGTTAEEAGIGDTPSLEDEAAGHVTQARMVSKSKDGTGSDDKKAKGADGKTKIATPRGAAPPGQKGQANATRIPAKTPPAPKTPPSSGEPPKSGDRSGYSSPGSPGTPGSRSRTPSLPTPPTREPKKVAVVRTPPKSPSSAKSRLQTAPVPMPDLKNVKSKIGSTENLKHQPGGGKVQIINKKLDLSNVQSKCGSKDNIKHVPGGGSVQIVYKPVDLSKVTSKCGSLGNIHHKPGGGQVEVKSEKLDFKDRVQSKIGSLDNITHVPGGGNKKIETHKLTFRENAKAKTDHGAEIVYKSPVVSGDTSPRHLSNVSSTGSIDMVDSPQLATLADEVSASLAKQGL
Procedure: (§1) (A) Expression and purification of human Tau: 1 mM IPTG (Sangon Biotech, Cat. No A100487) was used to induce production of tau by bacteria (BL21, Invitrogen, Cat. No C600003) transformed with a full-length 2N4R tau expression plasmid. After 3 hours, cell pellet was resuspended in lysis buffer (100 mM PIPES, 1 mM EGTA, 1 mM MgSO4, pH 6.8) and lysed by sonication followed by centrifugation (15,000 rpm, 15 min, 4° C.). The supernatant was then placed in a boiling water bath for 20 min, followed by centrifugation (15,000 rpm, 15 min, 4° C.). Supernatant was loaded onto a Q-Sepharose® Fast Flow column (GE healthcare, Cat. No 17-0510-01), the flow-through fraction was loaded onto an SP-Sepharose® Fast Flow column (GE healthcare, Cat. No 17-0729-01), and tau protein was eluted with elution buffer (100 mM PIPES, 1 M NaCl, 1 mM EGTA, 1 mM MgSO4, 0.2 M NaCl, pH 6.8). Collected fractions of tau-containing eluates were pooled, concentrated and dialyzed against HEPES buffer (25 mM HEPES, 0.1 mM EDTA, 0.5 mM DTT, 100 mM NaCl, pH 7.2) and stored at −80° C. in small aliquots until use. Protein concentration was determined by UV absorption.
(§2) (B) Preparation of heparin-induced aggregated tau (aTau): 2 μM of tau prepared in 30 mM Tris-HCl, pH 7.5 buffer was incubated in tube with 15 μM heparin (Sigma, Cat. No H3149) at 37° C. for 24 hours.
(E) PBBS competition assay: 2 μM of aTau was diluted to 0.12 μM by […] (pH 6.8) and then incubated with 0.1 μM 2-(4-(2-(methylamino)pyridine-5-yl)-1,3-butadiene-1-yl)benzothiazole-6-ol (PBB5) and serially diluted compound (three-fold serial dilution, from 10 to 0.00017 μM) in a 96-well plate (Corning, Cat. No 3573) at 37° C. for 1 hour. Fluorescence intensity (excitation/emission=530/690 nm) of PBB5 was read by microplate spectrometer (EnSpire 2300, PerkinElmer). Percentage of competition was calculated using the following equation: (Max−well of compound alone)/(Max−Min)*100%, where Max=(Tau+PBB5) signals−(buffer+PBB5) signals; and Min=(buffer+PBB5) signals−(buffer+PBB5) signals.
The IC50 value of each compound was calculated with GraphPad Prism software using the “4 Parameter Logistic Model or Sigmoidal Dose-Response Model”:
Y=Bottom+(Top−Bottom)/(1+(IC50/×)^HillSlope)

[2] = molecular target: T1, heparin-induced aggregated tau (aTau), full-length 2N4R human Tau; test: In vitro fluorometric aTau binding assay; conditions: 0.04 μM aTau, serially diluted compound 10 to 0.00017 μM, 37° C. 1 hour, fluorescence
Procedure: as §1, §2
(D) In vitro fluorometric aTau binding assays: 2 μM aTau was diluted to 0.04 μM with 30 mM Tris-HCl (pH 6.8), and then incubated with serially diluted compound (three-fold serial dilutions, from 10 to 0.00017 μM) in a 96-well plate (Corning, Cat. No 3573) at 37° C. for 1 hour. Fluorescence intensity (excitation/emission=370/500 nm) of APN-0729 was read by microplate spectrometer (EnSpire 2300, PerkinElmer). Compound Kd values were calculated using the following equation: Y=Bmax* X (Kd+X), where X is the concentration of compound; Y is the fluorescence signal of (compound+aTau)−(compound+DMSO); and Bmax is the maximum signal.

[3] = molecular target: T2, Tau aggregates in P301L-Tau-FL-GFP HEK293 cells (Homo sapiens, UniProt P10636, P618L); test: Tau degradation assay (APNmAb005 ELISA-based Tau aggregation assay); type: cell-based; conditions: 1 μM of compound, 24 hours, P301L-Tau-FL-GFP HEK293 cells seeded with rTg4510 brain lysate; read-out: Activity (reduction of tau aggregates)
T2 construct: express full-length human tau T40 (2N4R) carrying the P301L mutation with a GFP tag; expressed in transfected cells
T2 sequence (P10636 1-441 isoform P10636-8 P301L): as the sequence (P10636 1-441 isoform P10636-8) above, with P301L counted along it
Procedure: (A). Cell-based model of Tau inclusion formation: Six month old rTg4510 mouse brain lysates were used as the source of tau seeds, prepared as described in Example 26 above. P301L-Tau-FL-GFP HEK293 cells represent HEK293 cells express full-length human tau T40 (2N4R) carrying the P301L mutation with a GFP tag (P301L-Tau-FL-GFP). 1×10^6 of P301L-Tau-FL-GFP HEK293 cells were cultured on a 6-well plate in culture medium containing DMEM/F-12 (Gibco) supplemented with 10% fetal bovine serum (FBS) (Gibco), 1% Penicillin-Streptomycin (Gibco) and 0.5 mg/ml geneticin (Thermo Fisher Scientific) for 24 hours to reach 70-90% confluency, indicating the cells were ready for transfection. 50 μg of 6-month-old rTg4510 mouse brain lysate was diluted in 400 μL of serum free medium and mixed with 16 μL of lipofectamine 3000 reagent (Thermo Fisher Scientific) diluted in 400 μl of serum free medium. A solution mixture of rTg4510 brain lysate and lipofectamine 3000 was incubated at room temperature for 25 min. The culture media were removed, and then a solution mixture of rTg4510 lysate and lipofectamine 3000 was added to the cells for transfection. The solution mixture was incubated at room temperature for five hours, followed by medium change to 10% fetal bovine serum (FBS). After two-day incubation, Tau aggregates (Tau spots) were induced and images were acquired by ImageXpress Micro Confocal high-content imaging system (Molecular Devices) as described in Example 52 above. Analysis was performed by two customized modules in MetaXpress software (Molecular Devices) for aggregated tau analysis. Output included cell numbers, numbers of tau spots, average intensity of tau spots, and average size of tau spots.
(B). Compound treatment: 100 μL of 3×10^4 cells comprising Tau aggregates, prepared as described above in step (A), were plated on a 96-well plate coated with poly-D-lysine (BD Biosciences) and cultured for 24 hours. Compounds to be tested were dissolved in culture medium containing 0.1% DMSO. Each of test compounds in the concentration of 1, 0.2 and 0.04 μM was added to the cells comprising Tau aggregates and incubated at 37° C. for 24 hours. After that, culture medium was removed, cells were washed with PBS solution and then lysed using 30 μL of lysis buffer (PBS containing 0.3% Triton X-100 and 400 mM NaCl) for one hour at 4° C., and then cell lysate was diluted by 170 μl of PBS containing 400 mM NaCl. Cell lysate was filtrated by a […] filtration plate (Pall) and applied for Tau aggregation assay.
(C). Control cell lysate: control cell lysate was collected from non-seeded cells.
(D). ELISA-based Tau aggregation assay: APNmAb005 ELISA kit for Tau aggregation assay was designed and developed to detect abnormal tau aggregates in buffered solution or cell lysate by using anti-Tau APNmab005 as capture and detection antibody. This antibody is a highly specific antibody bound to human tau aggregates accumulated in mammalian cells. APNmAb005 is recited in PCT Patent Application No. PCT/M2020/057415, filed Aug. 5, 2020, which is incorporated herein by reference.
0.15 μg of APNmAb005 in 100 mM sodium carbonate buffer (pH 9.6) was coated on a high-binding polystyrene 96-well microplate (Greiner Bio-One) at 4° C. overnight. The microplate was washed with PBS followed by treatment with Intercept (PBS) blocking buffer (LI-COR) at room temperature for 2 hours. After that, the microplate was washed with PBS, and then the cell lysate with compound treatment, prepared as described above in step (C), was added into each well of the microplate and incubated at room temperature for 2 hours. The microplate was washed with PBS and then incubated with HRP-conjugated secondary antibody APNmAb005 at room temperature for 3 hours. HRP-conjugated secondary antibody APNmAb005 was prepared using HRP conjugation kit (Abcam,ab102890). The microplate was then washed with PBS and incubated with 100 μL of horseradish peroxidase (HRP) substrate at room temperature. […]

Structure (SMILES) | IC50 [1] [nM] | Emax [1] [%] | Kd [2] [nM] | inhibition at 1 µM [3] [%]
CN(C)c1ccc(-c2ccc(-c3nc4ccc(NCCOCCOCCOCCOCCOCCOc5ccc6c(c5)C(=O)N(C5CCC(=O)NC5=O)C6=O)cc4s3)cc2)cn1 (centres unmarked) [Compound 159985, 2-[2,6-bis(oxo)piperidin-3-yl]-5-[2-[2-[2-[2-[2-[2-[[2-[4-[6-(dimethylamino)-pyridin-3-yl]phenyl]-1,3-benzothiazol-6-yl]amino]ethoxy]ethoxy]ethoxy]ethoxy]ethoxy]-ethoxy]isoindole-1,3-dione] | 320 | 71 | 100 | < 10
CN(C)c1ccc(-c2ccc(-c3nc4ccc(NCCOCCOc5ccc6c(c5)C(=O)N(C5CCC(=O)NC5=O)C6=O)cc4s3)cc2)cn1 (centres unmarked) [Compound 160219, 2-[2,6-bis(oxo)piperidin-3-yl]-5-[2-[2-[[2-[4-[6-(dimethylamino)pyridin-3-yl]phenyl]-1,3-benzothiazol-6-yl]amino]ethoxy]ethoxy]isoindole-1,3-dione] | 150 | 69 | 110 | < 10
CN(C)c1ccc(-c2ccc(-c3nc4ccc(NCCOCCOCCOCCOCCOCCOc5ccc6c(c5)CN(C5CCC(=O)NC5=O)C6=O)cc4s3)cc2)cn1 (centres unmarked) [Compound 160273, 3-[6-[2-[2-[2-[2-[2-[2-[[2-[4-[6-(dimethylamino)pyridin-3-yl]phenyl]-1,3-benzothiazol-6-yl]amino]ethoxy]ethoxy]ethoxy]ethoxy]ethoxy]ethoxy]-3-oxidanylidene-1H-isoindol-2-yl]piperidine-2,6-dione] | 270 | 59 | 470 | < 10
CN(C)c1ccc2nc(-c3ccc(-c4ccc(NCCOCCOCCOCCOCCOCCOc5ccc6c(c5)CN(C5CCC(=O)NC5=O)C6=O)nc4)cc3)sc2c1 (centres unmarked) [Compound 160383, 3-[6-[2-[2-[2-[2-[2-[2-[[5-[4-[6-(dimethylamino)-1,3-benzothiazol-2-yl]-phenyl]pyridin-2-yl]amino]ethoxy]ethoxy]ethoxy]ethoxy]-ethoxy]ethoxy]-3-oxo-1H-isoindol-2-yl]piperidine-2,6-dione] | 270 | 80 | 550 | < 10
CN(C)c1ccc(-c2ccc(-c3cn4cc(OCCOCCOCCOCCOCCOCCOc5ccc6c(c5)C(=O)N(C5CCC(=O)NC5=O)C6=O)ccc4n3)cc2)c(F)n1 (centres unmarked) [Compound 160744, 2-[2,6-bis(oxo)piperidin-3-yl]-5-[2-[2-[2-[2-[2-[2-[2-[4-[6-(dimethyl-amino)-2-fluoro-pyridin-3-yl]phenyl]imidazo[1,2-a]pyridin-6-yl]oxyethoxy]ethoxy]ethoxy]-ethoxy]ethoxy]ethoxy]isoindole-1,3-dione] | 5960 | 113 | 150 | 10 to 20
